Measurements reported in US20250228835A1, “PYRIDINYLOXYPYRIDINES AND RELATED COMPOUNDS AND THEIR USE IN TREATING MEDICAL CONDITIONS” (Rectify Pharmaceuticals, Inc., priority 2024, published 2025).

Legend:
Type in all cases: cell-based
[1] = target: T1, ABCC6 WT (Homo sapiens, UniProt O95255); assay: ABCC6 WT assay: HiBit protein expression; details: HEK-293 cells transiently expressing HiBit-tagged ABCC6 WT; 24 h treatment; top concentration 20 μM; read-out: ABCC6 WT EC50, Emax
T1 construct: expressed in transfected cells; host or cells: HEK-293 (transient, Lipofectamine 2000)
T1 sequence (O95255 whole entry): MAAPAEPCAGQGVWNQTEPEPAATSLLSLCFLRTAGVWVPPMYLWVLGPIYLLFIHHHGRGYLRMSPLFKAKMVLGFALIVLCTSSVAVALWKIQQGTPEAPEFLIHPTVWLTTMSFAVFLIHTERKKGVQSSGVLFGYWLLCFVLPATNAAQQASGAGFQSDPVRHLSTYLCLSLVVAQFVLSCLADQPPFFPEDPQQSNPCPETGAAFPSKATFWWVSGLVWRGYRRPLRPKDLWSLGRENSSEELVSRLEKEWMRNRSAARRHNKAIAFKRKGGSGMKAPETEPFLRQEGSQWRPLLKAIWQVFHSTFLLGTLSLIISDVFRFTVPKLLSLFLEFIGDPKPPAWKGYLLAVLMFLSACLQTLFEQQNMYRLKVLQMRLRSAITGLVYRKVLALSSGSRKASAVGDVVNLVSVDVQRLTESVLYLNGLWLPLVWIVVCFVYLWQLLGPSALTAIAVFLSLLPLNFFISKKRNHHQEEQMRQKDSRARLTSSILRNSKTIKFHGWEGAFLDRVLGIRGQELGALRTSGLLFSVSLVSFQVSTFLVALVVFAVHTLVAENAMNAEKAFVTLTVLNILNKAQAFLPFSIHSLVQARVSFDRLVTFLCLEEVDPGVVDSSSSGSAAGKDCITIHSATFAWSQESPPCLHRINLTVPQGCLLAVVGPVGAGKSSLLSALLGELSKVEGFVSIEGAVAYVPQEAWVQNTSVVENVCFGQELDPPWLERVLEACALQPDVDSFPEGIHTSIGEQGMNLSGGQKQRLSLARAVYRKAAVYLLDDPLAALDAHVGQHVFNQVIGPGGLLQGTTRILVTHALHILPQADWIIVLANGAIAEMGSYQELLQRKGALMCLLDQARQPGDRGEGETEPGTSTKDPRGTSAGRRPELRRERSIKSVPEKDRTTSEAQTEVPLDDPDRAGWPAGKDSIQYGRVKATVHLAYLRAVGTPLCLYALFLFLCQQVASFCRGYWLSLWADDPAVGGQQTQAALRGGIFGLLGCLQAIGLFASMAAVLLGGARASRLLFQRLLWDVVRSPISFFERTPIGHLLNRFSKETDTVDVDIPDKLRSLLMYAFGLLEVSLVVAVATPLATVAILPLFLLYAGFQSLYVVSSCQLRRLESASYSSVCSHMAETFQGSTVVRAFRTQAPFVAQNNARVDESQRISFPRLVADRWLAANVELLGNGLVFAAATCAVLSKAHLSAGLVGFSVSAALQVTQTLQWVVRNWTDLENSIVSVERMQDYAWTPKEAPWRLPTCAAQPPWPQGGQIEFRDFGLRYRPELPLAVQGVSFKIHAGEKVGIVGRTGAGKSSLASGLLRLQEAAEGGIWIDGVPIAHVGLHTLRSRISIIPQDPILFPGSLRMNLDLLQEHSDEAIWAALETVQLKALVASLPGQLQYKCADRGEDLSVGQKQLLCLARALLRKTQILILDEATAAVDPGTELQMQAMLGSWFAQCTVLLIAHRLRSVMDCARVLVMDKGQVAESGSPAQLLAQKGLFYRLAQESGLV
How it was run: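 HEK-293 cells transiently transfected with HiBit-tagged human ABCC6 WT cDNA, seeded 24 h post-transfection, treated 24 h at 37° C with ten 2-fold doses (top 20 μM final, 0.15% DMSO). HiBit lytic luminescence reports protein expression; Emax and EC50 derived.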

[2] = target: T2, ABCB4 WT (Homo sapiens, UniProt P21439); assay: ABCB4 WT assay: HiBit protein expression; details: HEK-293 cells stably expressing HiBit-tagged ABCB4 WT; 24 h treatment; top concentration 30 μM; read-out: ABCB4 WT EC50, Emax
T2 construct: expressed in transfected cells
T2 sequence (P21439 whole entry): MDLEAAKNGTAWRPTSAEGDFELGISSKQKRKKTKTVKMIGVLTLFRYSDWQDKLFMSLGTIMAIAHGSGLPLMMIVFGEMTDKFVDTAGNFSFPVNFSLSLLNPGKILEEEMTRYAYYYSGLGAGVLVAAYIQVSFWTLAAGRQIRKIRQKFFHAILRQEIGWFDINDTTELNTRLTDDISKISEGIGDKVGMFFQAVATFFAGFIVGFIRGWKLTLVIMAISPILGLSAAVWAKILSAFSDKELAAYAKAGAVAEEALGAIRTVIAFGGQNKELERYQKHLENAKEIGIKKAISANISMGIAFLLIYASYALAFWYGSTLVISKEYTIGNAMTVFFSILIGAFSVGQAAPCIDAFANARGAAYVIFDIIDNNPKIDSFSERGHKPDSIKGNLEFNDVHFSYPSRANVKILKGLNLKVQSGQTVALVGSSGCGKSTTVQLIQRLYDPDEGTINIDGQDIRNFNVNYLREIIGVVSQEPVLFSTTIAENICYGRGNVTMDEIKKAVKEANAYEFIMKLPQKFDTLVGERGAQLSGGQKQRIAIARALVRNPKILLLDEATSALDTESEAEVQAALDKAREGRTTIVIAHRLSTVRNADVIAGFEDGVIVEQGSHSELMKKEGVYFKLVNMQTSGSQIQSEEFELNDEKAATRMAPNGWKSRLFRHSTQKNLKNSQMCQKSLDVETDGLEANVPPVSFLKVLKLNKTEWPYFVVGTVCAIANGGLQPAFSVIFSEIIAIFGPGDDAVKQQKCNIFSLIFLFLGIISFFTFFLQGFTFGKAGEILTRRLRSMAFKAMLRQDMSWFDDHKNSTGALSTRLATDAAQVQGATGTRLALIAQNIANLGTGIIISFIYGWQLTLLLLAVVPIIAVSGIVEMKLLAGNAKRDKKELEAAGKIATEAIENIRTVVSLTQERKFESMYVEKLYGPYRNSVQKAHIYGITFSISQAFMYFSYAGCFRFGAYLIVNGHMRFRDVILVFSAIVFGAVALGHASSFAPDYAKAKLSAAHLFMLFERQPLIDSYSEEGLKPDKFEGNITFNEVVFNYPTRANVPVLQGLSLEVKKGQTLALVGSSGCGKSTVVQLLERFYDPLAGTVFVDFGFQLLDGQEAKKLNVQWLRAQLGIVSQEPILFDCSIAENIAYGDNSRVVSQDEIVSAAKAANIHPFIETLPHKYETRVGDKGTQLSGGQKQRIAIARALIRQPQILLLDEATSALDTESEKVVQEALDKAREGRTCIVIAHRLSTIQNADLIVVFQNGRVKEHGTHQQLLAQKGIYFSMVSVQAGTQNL
How it was run: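 HEK-293 cells stably expressing HiBit-tagged human ABCB4 WT, treated 24 h at 37 °C with 11-dose 3-fold dilutions, top final 30 μM in 0.3% DMSO. HiBit lytic reagent luminescence read after 1 h at 25 °C; Emax and EC50 derived.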

[3] = target: T3, ABCA4 P1380L (Homo sapiens, UniProt P78363, P1380L); assay: A4 correction dose-response assay: ABCA4 P1380L HiBit protein expression; details: HEK-293 cells stably expressing HiBit-tagged ABCA4 P1380L; 24 h treatment; top concentration 30 μM; read-out: ABCA4 P1380L EC50, Emax
T3 construct: expressed in transfected cells
T3 sequence (P78363 whole entry P1380L): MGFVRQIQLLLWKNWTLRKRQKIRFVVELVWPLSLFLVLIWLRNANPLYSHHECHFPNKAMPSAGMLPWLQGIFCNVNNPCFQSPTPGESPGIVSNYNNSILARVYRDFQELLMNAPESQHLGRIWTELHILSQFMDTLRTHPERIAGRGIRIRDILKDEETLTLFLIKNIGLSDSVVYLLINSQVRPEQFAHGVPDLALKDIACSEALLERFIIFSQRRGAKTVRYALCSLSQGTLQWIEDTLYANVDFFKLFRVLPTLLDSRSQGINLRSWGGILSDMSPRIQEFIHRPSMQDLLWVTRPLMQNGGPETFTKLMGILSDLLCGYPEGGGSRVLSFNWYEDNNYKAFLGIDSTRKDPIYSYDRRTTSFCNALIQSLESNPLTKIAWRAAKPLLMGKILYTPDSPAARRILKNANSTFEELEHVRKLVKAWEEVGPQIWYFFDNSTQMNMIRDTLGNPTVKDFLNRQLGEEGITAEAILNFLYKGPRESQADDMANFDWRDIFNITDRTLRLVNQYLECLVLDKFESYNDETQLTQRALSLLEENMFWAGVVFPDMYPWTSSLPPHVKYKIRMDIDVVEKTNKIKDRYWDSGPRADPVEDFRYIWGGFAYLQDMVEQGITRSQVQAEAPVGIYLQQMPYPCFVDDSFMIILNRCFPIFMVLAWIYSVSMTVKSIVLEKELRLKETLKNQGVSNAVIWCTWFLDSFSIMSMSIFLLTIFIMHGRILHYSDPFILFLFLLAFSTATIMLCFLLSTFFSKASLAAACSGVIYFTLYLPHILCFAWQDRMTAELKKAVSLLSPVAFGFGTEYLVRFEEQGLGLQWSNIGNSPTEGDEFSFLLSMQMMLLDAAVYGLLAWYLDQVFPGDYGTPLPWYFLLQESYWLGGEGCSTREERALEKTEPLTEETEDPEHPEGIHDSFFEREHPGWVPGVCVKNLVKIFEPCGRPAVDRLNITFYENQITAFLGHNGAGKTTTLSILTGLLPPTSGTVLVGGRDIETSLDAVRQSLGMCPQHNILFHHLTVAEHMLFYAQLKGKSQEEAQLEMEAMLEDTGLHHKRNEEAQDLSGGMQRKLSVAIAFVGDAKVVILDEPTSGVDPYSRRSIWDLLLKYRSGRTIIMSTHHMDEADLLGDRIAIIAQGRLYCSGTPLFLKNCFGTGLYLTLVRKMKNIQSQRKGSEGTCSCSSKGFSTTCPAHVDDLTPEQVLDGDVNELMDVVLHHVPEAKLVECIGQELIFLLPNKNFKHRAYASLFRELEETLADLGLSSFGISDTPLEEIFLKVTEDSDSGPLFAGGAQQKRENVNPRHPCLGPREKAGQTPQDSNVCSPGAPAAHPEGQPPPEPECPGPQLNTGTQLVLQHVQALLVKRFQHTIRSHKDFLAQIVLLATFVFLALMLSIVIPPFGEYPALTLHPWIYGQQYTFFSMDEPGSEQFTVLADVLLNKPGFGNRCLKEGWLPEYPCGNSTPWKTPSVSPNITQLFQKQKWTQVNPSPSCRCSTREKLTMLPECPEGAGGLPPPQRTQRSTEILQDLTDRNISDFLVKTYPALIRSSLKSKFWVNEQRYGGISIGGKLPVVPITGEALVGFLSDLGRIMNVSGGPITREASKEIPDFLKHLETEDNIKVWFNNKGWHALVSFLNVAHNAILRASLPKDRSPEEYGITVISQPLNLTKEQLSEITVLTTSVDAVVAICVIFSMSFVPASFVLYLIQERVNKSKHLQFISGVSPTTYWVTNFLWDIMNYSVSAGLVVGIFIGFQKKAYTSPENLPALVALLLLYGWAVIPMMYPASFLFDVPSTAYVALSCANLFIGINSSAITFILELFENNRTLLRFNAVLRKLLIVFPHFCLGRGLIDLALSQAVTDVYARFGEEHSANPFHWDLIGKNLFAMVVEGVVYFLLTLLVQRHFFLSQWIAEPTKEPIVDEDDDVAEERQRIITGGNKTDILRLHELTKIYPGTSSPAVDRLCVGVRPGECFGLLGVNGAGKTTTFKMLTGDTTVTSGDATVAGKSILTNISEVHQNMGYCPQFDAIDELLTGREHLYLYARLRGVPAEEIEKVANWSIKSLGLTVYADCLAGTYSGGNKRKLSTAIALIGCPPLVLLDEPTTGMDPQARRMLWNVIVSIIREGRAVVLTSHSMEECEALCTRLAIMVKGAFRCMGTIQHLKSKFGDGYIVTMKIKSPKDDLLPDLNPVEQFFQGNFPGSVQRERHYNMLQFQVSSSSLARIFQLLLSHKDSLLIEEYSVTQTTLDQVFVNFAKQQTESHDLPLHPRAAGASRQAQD
How it was run: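 Cells transfected with HiBit-tagged human ABCA4 P1380L cDNA were treated for 24 h at 37°C with an eleven-point dilution series (top final 30 μM, 0.3% DMSO).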

SMILES	EC50 [1]	EC50 [2]	EC50 [3]
CNS(=O)(=O)c1ncc(-c2cncc(Cl)c2)nc1Oc1c(C)cc(C)c(Cl)c1C [Compound I-89]	< 25 µM	1 to 10 µM	> 25 µM
CNS(=O)(=O)c1ccc(N2CCN(C)C(=O)C2)nc1Oc1c(C)cc(C)cc1C [Compound I-92]	1 to 10 µM	≥ 25 µM	> 25 µM
Cc1cc(C)c(Oc2nc(-c3cncc(Cl)c3)ncc2S(N)(=O)=O)c(C)c1Cl [Compound I-93]	< 25 µM	≥ 25 µM	1 to 10 µM
Cc1cc(C)c(Oc2nc(-c3cncc(Cl)c3)ccc2S(=O)(=O)Nc2cnn(C)c2)c(C)c1 [Compound I-94]	1 to 10 µM	1 to 10 µM	1 to 10 µM

More lines, now with the values ahead:

EC50 [1]	EC50 [2]	EC50 [3]	SMILES
1 to 10 µM	1 to 10 µM	> 25 µM	Cc1cc(C)c(Oc2nc(-c3cncc(Cl)c3)ccc2S(=O)(=O)NCc2cc(C(F)(F)F)ccn2)c(C)c1 [Compound I-87]
1 to 10 µM	< 25 µM	1 to 10 µM	Cc1cc(C)c(Oc2nc(-c3cncc(Cl)c3)ccc2S(=O)(=O)NCc2ccccc2)c(C)c1 [Compound I-88]
< 1 µM	1 to 10 µM	1 to 10 µM	Cc1cc(C)c(Oc2nc(-c3cncc(Cl)c3)cnc2S(N)(=O)=O)c(C)c1Cl [Compound I-90]
